In US9029531B2 (Agios Pharmaceuticals, Inc., priority 2012, dated 2015):

Target: T1, glutaminase (GAC) (Homo sapiens, UniProt O94925)
T1 sequence (O94925 55-598 isoform O94925-3 limits assumed): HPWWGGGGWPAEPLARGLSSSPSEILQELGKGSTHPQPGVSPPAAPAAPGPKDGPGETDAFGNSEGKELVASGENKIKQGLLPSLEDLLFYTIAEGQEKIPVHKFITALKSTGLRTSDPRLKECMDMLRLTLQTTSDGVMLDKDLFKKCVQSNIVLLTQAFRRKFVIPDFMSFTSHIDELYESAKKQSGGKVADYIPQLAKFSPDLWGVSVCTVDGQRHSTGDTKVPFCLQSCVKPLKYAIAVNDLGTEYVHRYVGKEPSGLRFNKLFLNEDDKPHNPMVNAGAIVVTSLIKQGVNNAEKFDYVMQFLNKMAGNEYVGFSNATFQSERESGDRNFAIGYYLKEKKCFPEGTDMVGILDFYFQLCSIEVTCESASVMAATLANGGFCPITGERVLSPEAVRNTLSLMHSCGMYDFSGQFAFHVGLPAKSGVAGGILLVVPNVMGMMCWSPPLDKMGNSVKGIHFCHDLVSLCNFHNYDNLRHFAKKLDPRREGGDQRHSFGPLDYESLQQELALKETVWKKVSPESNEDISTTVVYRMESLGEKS
Experiment: Glutaminase coupled endpoint enzymatic assay (Example A)
Assay type: biochemical
Conditions: inhibition of glutaminase; assay of Example A or Example B
Excerpt: In certain embodiments, exemplary compounds of Formula I include the compounds described in Table 1 and in the Examples. A compound described herein may be tested for its ability to inhibit glutaminase, e.g., by an assay as described in the Examples. For simplicity, the inhibition activity of these compounds is represented as an IC50 tested in an assay of Example A or Example B in Table 1. […] “N/A” refers to compounds wherein the IC50 is unavailable.
In this example, the enzymatic activity of glutaminase is measured through a coupled endpoint assay. Glutamine and phosphate are supplied to GAC at a concentration equal to Km and AC50, respectively, and GAC concentration is adjusted to give a linear reaction for 60 minutes. The glutamate produced is converted to 2-OG by a kinetic excess of glutamate dehydrogenase. This second step is configured for 2×Km for NAD, since excess NAD is inhibitory. However, a kinetic excess of the third coupling enzyme, diaphorase, recycles NAD from NADH to keep the NAD concentration constant during the timecourse of the assay. Diaphorase, also supplied in kinetic excess, oxidizes NADH produced by GDH back to NAD with the concomitant reduction of rezasurin to the highly fluorescent resorufin. Resorufin in measured after the assay is stopped with SDS by Ex544/Em590. A reduction in the signal indicates inhibition of some component of the coupled enzyme system. Prospective hits are counterscreened against GDH/diaphorase alone to remove hits to the coupling enzyme system in a second assay.
2. Buffers • 2× Buffer (300 mM NaCl, 100 mM HEPES pH 8.5, 0.1% BSA, 0.5 mM EDTA, 100 mM sodium phosphate pH 8.5) • 5× Substrate Mix (1× Buffer final concentration, with 13 mM glutamine, 100 μM resazurin, 50 μg/ml diaphorase) • 1.2× Enzyme Mix (1× Buffer final concentration, with 0.875 μg/ml GAC, 1.56 mM NAD, 6.25 units/ml GDH) • Stop Mix (6% SDS in ddH2O) Reaction Procedure • 1. Add 1 μl compound in 100% DMSO • 2. Add 40 μl of Enzyme Mix and incubate for 60 minute at room temperature • 3. Add 10 μl of Substrate Mix to start reaction • 4. Stop reaction with 25 μl of 6% SDS and read Ex544 Em 590

Row | Compound | IC50
1 | O=C(Cc1cccc(N2CC(F)(F)C2)n1)Nc1nnc([C@H]2CC[C@H](c3nnc(NC(=O)Cc4cccc(N5CC(F)(F)C5)n4)s3)C2)s1 [Compound 288, N,N′-(5,5′-((1S,3S)-cyclopentane-1,3-diyl)bis(1,3,4-thiadiazole-5,2-diyl))bis(2-(6-(3,3-difluoroazetidin-1-yl)pyridin-2-yl)acetamide)] | < 0.1 µM
2 | COc1ccccc1CC(=O)Nc1nnc(C2CCCCC(c3nnc(NC(=O)Cc4ccccc4OC)s3)C2)s1 (centres unmarked) [Compound 123] | 1 to 2 µM
3 | COc1cccc(CC(=O)Nc2nnc([C@H]3CCC[C@H](c4nnc(NC(C)=O)s4)C3)s2)c1 [Compound 90, N-(5-((1S,3S)-3-(5-acetamido-1,3,4-thiadiazol-2-yl)cyclohexyl)-1,3,4-thiadiazol-2-yl)-2-(3-methoxyphenyl)acetamide] | 0.1 to 0.5 µM
4 | O=C(Cc1cc(N2CCC2)ccn1)Nc1nnc([C@H]2CCC[C@H](c3nnc(NC(=O)Cc4cc(N5CCC5)ccn4)s3)C2)s1 [Compound 254, N,N′-(5,5′-((1S,3S)-cyclohexane-1,3-diyl)bis(1,3,4-thiadiazole-5,2-diyl))bis(2-(4-(azetidin-1-yl)pyridin-2-yl)acetamide)] | 0.1 to 0.5 µM
5 | CN(C)c1nc(CC(=O)Nc2nnc([C@H]3CCC[C@H](c4nnc(NC(=O)Cc5csc(N(C)C)n5)s4)C3)s2)cs1 [Compound 278, N,N′-(5,5′-((1S,3S)-cyclohexane-1,3-diyl)bis(1,3,4-thiadiazole-5,2-diyl))bis(2-(2-(dimethylamino)thiazol-4-yl)acetamide)] | 0.1 to 0.5 µM
6 | O=C(Cc1ccccc1[N+](=O)[O-])Nc1nnc([C@H]2CCC[C@H](c3nnc(NC(=O)Cc4ccccc4[N+](=O)[O-])s3)C2)s1 [Compound 57, N,N′-(5,5′-((1S,3S)-cyclohexane-1,3-diyl)bis(1,3,4-thiadiazole-5,2-diyl))bis(2-(2-nitrophenyl)acetamide)] | 0.1 to 0.5 µM
7 | COc1ccccc1CC(=O)Nc1nnc([C@@H]2CCCC[C@H](c3nnc(NC(=O)Cc4ccccc4OC)s3)C2)s1 [Compound 125] | 1 to 2 µM
8 | COc1ccccc1CC(=O)Nc1nnc([C@H]2CC[C@H](c3nnc(NC(=O)Cc4ccccc4OC)s3)C2)s1 [Compound 284, N,N′-(5,5′-((1S,3S)-cyclopentane-1,3-diyl)bis(1,3,4-thiadiazole-5,2-diyl))bis(2-(2-methoxyphenyl)acetamide)] | < 0.1 µM

More lines, now with the values ahead:

Row | IC50 | Compound
9 | < 0.1 µM | N#Cc1cccc(CC(=O)Nc2nnc([C@H]3CCC[C@H](c4nnc(NC(=O)Cc5cccc(C#N)n5)s4)C3)s2)n1 [Compound 229, N,N′-(5,5′-((1S,3S)-cyclohexane-1,3-diyl)bis(1,3,4-thiadiazole-5,2-diyl))bis(2-(6-cyanopyridin-2-yl)acetamide)]
10 | 1 to 2 µM | O=C(Cc1ccccn1)Nc1nnc(C2CCCCC(c3nnc(NC(=O)Cc4ccccn4)s3)C2)s1 (centres unmarked) [Compound 122]
11 | < 0.1 µM | O=C(Cc1cccc(Br)n1)Nc1nnc([C@H]2CCC[C@H](c3nnc(NC(=O)Cc4cccc(Br)n4)s3)C2)s1 [Compound 118, N,N′-(5,5′-((1S,3S)-cyclohexane-1,3-diyl)bis(1,3,4-thiadiazole-5,2-diyl))bis(2-(6-bromopyridin-2-yl)acetamide)]
12 | < 0.1 µM | COCCOc1ccc(CC(=O)Nc2nnc([C@H]3CCC[C@H](c4nnc(NC(=O)Cc5cccc(N6CC(F)(F)C6)n5)s4)C3)s2)nc1 [Compound 280, 2-(6-(3,3-difluoroazetidin-1-yl)pyridin-2-yl)-N-(5-((1S,3S)-3-(5-(2-(5-(2-methoxyethoxy)pyridin-2-yl)acetamido)-1,3,4-thiadiazol-2-yl)cyclohexyl)-1,3,4-thiadiazol-2-yl)acetamide]
13 | 1 to 2 µM | O=C(Cc1ccccc1)Nc1nnc(C2CCCC(c3nnc(NC(=O)Cc4ccccc4)s3)C2)s1 (centres unmarked) [Compound 36]
14 | 0.1 to 0.5 µM | NCc1ccc(CC(=O)Nc2nnc([C@H]3CCC[C@H](c4nnc(NC(=O)Cc5ccc(CN)cn5)s4)C3)s2)nc1 [Compound 243, N,N′-(5,5′-((1S,3S)-cyclohexane-1,3-diyl)bis(1,3,4-thiadiazole-5,2-diyl))bis(2-(5-(aminomethyl)pyridin-2-yl)acetamide)]
